From patent US10072125B2, “Thiourea-containing dendrimer and thiourea-containing hyperbranched polymer as well as preparation methods thereof and applications thereof” (priority 2014, dated 2018)
≈ marks a conversion by molar mass, not a printed value. Marks after values point to notes of the source that are not given here.

Tests used:
Test in all cases: Antibacterial performance test, MIC by broth dilution
Format in all cases: cell-based
Enterobacter cloacae = details: 24 h at 37° C., 5×10^5 CFU/mL
Procedure: (§1) To evaluate the antimicrobial activity of each generation of polythiourea dendrimer as described in Example 3, the MICs (minimal inhibitory concentrations) of these dendrimers against different bacteria strains, including Staphylococcus aureus, Enterococcus faecalis, Escherichia coli, Staphylococcus epidermidis, Enterobacter cloacae and Proteus valgaris were determined.
(§2) The strains stored at −20° C. were inoculated on MH agar plates and incubated overnight at 37° C. The monoclonal colonies were cultured in 3 mL nutrient broth at 37° C. to reach the logarithmic growth period. Then the bacteria were diluted with the MH broth to 0.5 millet turbidity standard and further diluted to 1:100 with MH broth as a stock. The diluted bacteria should be inoculated within 15 min. The polythiourea dendrimers were diluted with sterile water into 200 mg/mL, filtered and sterilized. Gentamicin and amikacin were used as positive controls for Gram-negative and Gram-positive bacteria, respectively. Dispense 100 μL of M-H broth into all wells of 96-well plate, and then pipette 100 μL of M-G1-PEG, M-G2-PEG, M-G3-PEG, M-G4-PEG, antibiotics and MH broth in the first column in the order of labeling. After mixing well with the gun, transfer 100 μL from each well in the first column to the corresponding well in the second column. Repeat the procedure to column 10 and discard […], from column 10. Then 100 μL of bacteria was added to each well. The final bacterial solution concentration per well was 5×10^5 CFU/mL. On the outer periphery of the 96-well plate, 200 μL of the drug-free suspension was added as a sterile control. At the same time subculture the suspension in the agar plate, for assessing the purity of bacteria. The inoculated 96-well plates were shaken on a micro-shaker for 1 min, mixed thoroughly and placed in a wet box. After incubated for 24 h at 37° C., the minimum drug concentration of the clear well was observed by the naked eye as the MIC of the drug. At the same time, it was examined whether the growth of the control well was good and the sterile control well was clear. The plate culture of the suspension was examined to determine whether it was contaminated and whether the MIC value of the control strain was in the control range. This assay was repeated three times.

Proteus valgaris = details: 24 h at 37° C., 5×10^5 CFU/mL
Procedure: as §1, §2

Escherichia coli = details: 24 h at 37° C., 5×10^5 CFU/mL
Procedure: as §1, §2

Enterococcus faecalis = details: 24 h at 37° C., 5×10^5 CFU/mL, read-out: MIC E. faecalis
Procedure: as §1, §2

[1] = test system: Staphylococcus epidermidis; details: 24 h at 37° C., 5×10^5 CFU/mL, read-out: MIC S. epidermidis
Procedure: as §1, §2

Staphylococcus aureus = details: 24 h at 37° C., 5×10^5 CFU/mL, read-out: MIC S. aureus
Procedure: as §1, §2

Row | Molecule | MIC E. cloacae (Enterobacter cloacae) | MIC P. valgaris (Proteus valgaris) | MIC E. coli (Escherichia coli) | MIC (Enterococcus faecalis) | MIC [1] | MIC (Staphylococcus aureus)
1 | Gentamicin | 2** μg/mL | 2** μg/mL | 1** μg/mL | – | – | –
2 | NCC[C@H](O)C(=O)N[C@@H]1C[C@H](N)[C@@H](O[C@H]2O[C@H](CN)[C@@H](O)[C@H](O)[C@H]2O)[C@H](O)[C@H]1O[C@H]1O[C@H](CO)[C@@H](O)[C@H](N)[C@H]1O [Amikacin] | – | – | – | 4 µg/mL (≈ 6.83 µM) | 0.5 µg/mL (≈ 0.854 µM) | 2 µg/mL (≈ 3.42 µM)
